Experiments:
Format in all cases: in vivo, mouse
[1] = Total and full-length antisense compound concentrations in liver and kidney (Example 4, Table 42); settings: C57/BL6 mice; single i.p. dose; 48 h; dose not given
Experimental: (§1) Eight-week old male C57/BL6 mice (Jackson Laboratory, Bar Harbor, Me.) were administered a single dose of GCGR oligonucleotide by intraperitoneal injection at a concentration of […]. Each dose group consisted of four animals. Shown in Table 31 are the sequences, motifs and conjugates of the GCGR antisense compounds used in this study. Bolded residues indicate 2′-O-methoxyethyl (2′-MOE) moieties. All compounds comprise phosphorothioate internucleoside linkages throughout and each cytosine is replaced with 5-methylcytosine. ISIS 386626, ISIS 386627 and ISIS 386628 further comprise a C16 conjugate group attached to the 2′-O position of the sugar via a diamide linkage (2′-OCH2C(═O)N(H)(CH2)4N(H)C(═O)—(CH2)15CH3). GCGR antisense compounds target published GCGR sequences, including Genbank® Accession No. BC031885.1 (SEQ ID NO: 7).
(§2) Mice were sacrificed 48 hours following injection to determine serum transaminase levels (Table 32); liver, white adipose tissue (WAT), spleen and kidney weight (Table 33); cholesterol, triglyceride and glucose levels (Table 34); GCGR mRNA levels (Tables 35-41); and full-length and total oligonucleotide concentration in liver and kidney (Table 42). Endpoints were assessed using methods described herein and well known to those of ordinary skill in the art. Data is included from a pre-treatment bleed (Pre-Bleed) and post-treatment bleed (Post-Bleed).
Treatment with the 2-10-2 MOE gapmers led to a significant dose-dependent decrease in GCGR mRNA expression. […] To determine whether the observed increase in efficiency with the short antisense compounds is due to an increase in antisense compound accumulation, full-length and total antisense compound concentration in the liver and kidney were determined.

[2] = Organ weights: liver, white adipose tissue, spleen, kidney (Example 4, Table 33); settings: 48 h, C57/BL6 mice
Experimental: as §1, §2

[3] = Triglyceride, cholesterol and glucose levels, pre-bleed and post-bleed (Example 4, Table 34); set-up: TRIG Pre-Bleed / TRIG Post-Bleed / CHOL Pre-Bleed / CHOL Post-Bleed / Glucose Pre-Bleed / Glucose Post-Bleed: unit not given here; settings: C57/BL6 mice; for CHOL Pre-Bleed / Glucose Pre-Bleed / TRIG Pre-Bleed: pre-treatment bleed; for CHOL Post-Bleed / Glucose Post-Bleed / TRIG Post-Bleed: post-treatment bleed, 48 h
Experimental: as §1, §2

[4] = ALT & AST levels, C57/BL6 mice (Example 4, Table 32); settings: for ALT Pre-Bleed / AST Pre-Bleed: pre-treatment bleed; for ALT Post-Bleed / AST Post-Bleed: 48 hours following injection
Experimental: as §1, §2

GCGR mRNA = GCGR mRNA levels in liver of C57/BL6 mice, single i.p. dose (Example 4, Tables 35-41); settings: 48 h, Table 35 comparison ISIS 148364 & ISIS 386626
Experimental: as §1, §2
To determine whether the phenotypic changes shown above correlated with a decrease in GCGR mRNA, treated animals were evaluated for levels of target mRNA in liver by real time PCR according to methods described herein. Tables 35 to 41 show results from direct comparisons of the antisense compounds targeting GCGR nucleic acid for their effect on target expression. Results are expressed as percent of saline control.

## 386626 (antisense GCTTCTCCATCATA; chemistry not fully specified) [compound 386626]
[1]
  Full-length antisense compound concentration, Kidney: 355 µg/g
  Full-length antisense compound concentration, Liver: 125 µg/g
  Total antisense compound concentration, Kidney: 757 µg/g
  Total antisense compound concentration, Liver: 274 µg/g
[2]; 6.25 mg/kg single i.p.
  Organ weight: Kidney: 100 % saline control
  Organ weight: Liver: 100 % saline control
  Organ weight: Spleen: 95 % saline control
  Organ weight: WAT: 90 % saline control
[2]; 12.5 mg/kg single i.p.
  Organ weight: Kidney: 97 % saline control
  Organ weight: Liver: 96 % saline control
  Organ weight: Spleen: 114 % saline control
  Organ weight: WAT: 73 % saline control
[2]; 25 mg/kg single i.p.
  Organ weight: Kidney: 103 % saline control
  Organ weight: Liver: 109 % saline control
  Organ weight: Spleen: 120 % saline control
  Organ weight: WAT: 97 % saline control
[2]; 50 mg/kg single i.p.
  Organ weight: Kidney: 104 % saline control
  Organ weight: Liver: 112 % saline control
  Organ weight: Spleen: 130 % saline control
  Organ weight: WAT: 77 % saline control
[3]; 6.25 mg/kg group
  CHOL Pre-Bleed: 85
  Glucose Pre-Bleed: 222
  TRIG Pre-Bleed: 86
[3]; 6.25 mg/kg single i.p.
  CHOL Post-Bleed: 90
  Glucose Post-Bleed: 221
  TRIG Post-Bleed: 162
[3]; 12.5 mg/kg group
  CHOL Pre-Bleed: 82
  Glucose Pre-Bleed: 232
  TRIG Pre-Bleed: 100
[3]; 12.5 mg/kg single i.p.
  CHOL Post-Bleed: 76
  Glucose Post-Bleed: 185
  TRIG Post-Bleed: 148
[3]; 25 mg/kg group
  CHOL Pre-Bleed: 87
  Glucose Pre-Bleed: 235
  TRIG Pre-Bleed: 100
[3]; 25 mg/kg single i.p.
  CHOL Post-Bleed: 72
  Glucose Post-Bleed: 186
  TRIG Post-Bleed: 187
[3]; 50 mg/kg group
  CHOL Pre-Bleed: 79
  Glucose Pre-Bleed: 239
  TRIG Pre-Bleed: 87
[3]; 50 mg/kg single i.p.
  CHOL Post-Bleed: 57
  Glucose Post-Bleed: 179
  TRIG Post-Bleed: 163
[4]; 6.25 mg/kg dose group
  ALT Pre-Bleed: 26 IU/L
  AST Pre-Bleed: 46 IU/L
[4]; 12.5 mg/kg dose group
  ALT Pre-Bleed: 28 IU/L
  AST Pre-Bleed: 44 IU/L
[4]; 25 mg/kg dose group
  ALT Pre-Bleed: 30 IU/L
  AST Pre-Bleed: 44 IU/L
[4]; 50 mg/kg dose group
  ALT Pre-Bleed: 28 IU/L
  AST Pre-Bleed: 48 IU/L
[4]; single i.p. dose 6.25 mg/kg
  ALT Post-Bleed: 42 IU/L
  AST Post-Bleed: 69 IU/L
[4]; single i.p. dose 12.5 mg/kg
  ALT Post-Bleed: 34 IU/L
  AST Post-Bleed: 90 IU/L
[4]; single i.p. dose 25 mg/kg
  ALT Post-Bleed: 36 IU/L
  AST Post-Bleed: 92 IU/L
[4]; single i.p. dose 50 mg/kg
  ALT Post-Bleed: 40 IU/L
  AST Post-Bleed: 120 IU/L
GCGR mRNA; 6.25 mg/kg single i.p.
  GCGR mRNA levels in liver: 7% of saline control
GCGR mRNA; 12.5 mg/kg single i.p.
  GCGR mRNA levels in liver: 3% of saline control
GCGR mRNA; 25 mg/kg single i.p.
  GCGR mRNA levels in liver: 8% of saline control
GCGR mRNA; 50 mg/kg single i.p.
  GCGR mRNA levels in liver: 0% of saline control
